One assay concerns the target T1, MERTK (Homo sapiens, UniProt Q12866).
T1 sequence (Q12866 21-999): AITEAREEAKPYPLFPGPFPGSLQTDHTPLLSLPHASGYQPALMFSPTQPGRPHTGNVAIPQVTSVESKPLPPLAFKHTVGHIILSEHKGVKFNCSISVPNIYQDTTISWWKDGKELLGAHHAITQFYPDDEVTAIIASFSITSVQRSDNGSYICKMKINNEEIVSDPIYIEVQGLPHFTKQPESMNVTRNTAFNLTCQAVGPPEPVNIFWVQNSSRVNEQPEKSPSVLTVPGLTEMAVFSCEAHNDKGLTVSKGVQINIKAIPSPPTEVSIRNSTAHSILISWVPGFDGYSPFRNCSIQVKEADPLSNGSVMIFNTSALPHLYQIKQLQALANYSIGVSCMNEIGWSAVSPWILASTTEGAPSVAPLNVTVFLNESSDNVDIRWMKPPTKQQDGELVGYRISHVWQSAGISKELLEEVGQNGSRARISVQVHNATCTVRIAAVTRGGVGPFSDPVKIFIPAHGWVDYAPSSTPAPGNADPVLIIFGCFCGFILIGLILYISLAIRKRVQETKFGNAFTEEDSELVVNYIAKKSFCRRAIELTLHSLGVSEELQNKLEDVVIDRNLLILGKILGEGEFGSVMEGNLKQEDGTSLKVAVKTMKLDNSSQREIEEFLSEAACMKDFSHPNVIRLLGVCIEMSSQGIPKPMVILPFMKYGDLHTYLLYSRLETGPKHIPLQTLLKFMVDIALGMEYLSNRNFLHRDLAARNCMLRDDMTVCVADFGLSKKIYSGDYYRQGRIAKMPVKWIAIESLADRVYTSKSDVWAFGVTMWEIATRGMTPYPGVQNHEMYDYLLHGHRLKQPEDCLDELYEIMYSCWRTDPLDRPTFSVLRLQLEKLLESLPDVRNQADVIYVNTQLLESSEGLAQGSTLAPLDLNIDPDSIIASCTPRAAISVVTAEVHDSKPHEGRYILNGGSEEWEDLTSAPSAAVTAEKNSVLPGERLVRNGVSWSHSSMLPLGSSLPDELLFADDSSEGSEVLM
Put plainly: TR-FRET kinase activity assay, MERTK. The class given is biochemical. The note with it: for IC50: TR-FRET activity assay, ATP at Km, 60 minutes, read-out: Mer IC50. In short, it runs like this:
(§1)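 Enzyme + labelled peptide + cpd premixed; ATP at per-enzyme Km starts rxn. 60 min RT, HEPES pH 7.5/MgCl2/EGTA/Brij 35/DTT buffer. Stop 12.5 mM EDTA, Eu phospho-Ab 30 min dark, TR-FRET read → IC50.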
Background: In TR-FRET formats the signal depends on donor and acceptor labels being close together.

For a further assay, the target named is T2, TYRO3 (Homo sapiens, UniProt Q06418).
T2 sequence (Q06418 41-890): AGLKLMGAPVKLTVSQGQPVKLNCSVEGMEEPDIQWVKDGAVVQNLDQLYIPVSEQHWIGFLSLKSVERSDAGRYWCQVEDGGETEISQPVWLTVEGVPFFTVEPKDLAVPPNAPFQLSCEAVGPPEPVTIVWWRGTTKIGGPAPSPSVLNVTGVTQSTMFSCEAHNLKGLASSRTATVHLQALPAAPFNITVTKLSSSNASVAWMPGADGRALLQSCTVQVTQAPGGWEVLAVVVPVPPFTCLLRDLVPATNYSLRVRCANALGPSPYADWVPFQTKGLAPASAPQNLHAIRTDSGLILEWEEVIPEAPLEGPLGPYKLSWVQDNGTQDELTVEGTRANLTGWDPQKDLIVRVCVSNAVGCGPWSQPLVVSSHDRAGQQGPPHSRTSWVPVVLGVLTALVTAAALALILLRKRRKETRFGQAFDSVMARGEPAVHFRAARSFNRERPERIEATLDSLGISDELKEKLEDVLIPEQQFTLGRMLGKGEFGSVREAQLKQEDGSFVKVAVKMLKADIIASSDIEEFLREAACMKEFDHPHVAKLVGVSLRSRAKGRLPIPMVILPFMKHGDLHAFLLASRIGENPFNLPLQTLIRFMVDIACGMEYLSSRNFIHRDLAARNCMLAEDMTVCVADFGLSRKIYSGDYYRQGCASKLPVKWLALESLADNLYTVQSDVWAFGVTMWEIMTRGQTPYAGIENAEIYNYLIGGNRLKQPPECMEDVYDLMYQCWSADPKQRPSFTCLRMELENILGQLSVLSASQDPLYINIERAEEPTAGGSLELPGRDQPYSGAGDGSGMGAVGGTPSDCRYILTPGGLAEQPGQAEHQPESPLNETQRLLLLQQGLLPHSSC
Put plainly: TR-FRET kinase activity assay, TYRO3. The class given is biochemical. The note with it: ATP at Km, 60 minutes. In short, it runs like this:
as §1

Where [1] appears, read: ratio calculated as FLT3 IC50/Mer IC50.

The structures appear in SMILES notation.

Take `COC[C@H](C)Nc1ncc2c(-c3cnn(C(C)(C)C(=O)N4CCOCC4)c3)cc([C@H]3CC[C@@H](O)CC3)n2n1` [Compound 547]: the IC50 at MERTK and on TYRO3 was at most 100 nM in each case. Moreover, on MERTK (setting [1]), the “FLT3/Mer ratio (FLT3 IC50/Mer IC50)” value was “+++ (“+++” represents a ratio of >100)”.

Regarding `COC[C@H](C)Nc1ncc2c(-c3cnn(C4COC4)c3)cc([C@@H]3CC[C@H](O)[C@H](C)C3)n2n1` [Compound 587], the IC50 at MERTK and on TYRO3 was at most 100 nM in each case. On MERTK (setting [1]), the “FLT3/Mer ratio (FLT3 IC50/Mer IC50)” value is listed as “+++ (“+++” represents a ratio of >100)”.

For `COCC(C)Nc1ncc2c(-c3ccc4ncoc4c3)cc(C3CCC(O)CC3)n2n1` (stereo not drawn) [Compound 552], the IC50 at MERTK and against TYRO3 was at most 100 nM in each case. The “FLT3/Mer ratio (FLT3 IC50/Mer IC50)” value on MERTK (setting [1]) is given as “+++ (“+++” represents a ratio of >100)”.

On to `CC[C@H](C)Nc1ncc2c(C3CCNCC3)cc([C@H]3CC[C@H](O)CC3)n2n1` [Compound 135, (trans)-4-(2-((S)-sec-butylamino)-5-(piperidin-4-yl)pyrrolo[2,1-f][1,2,4]triazin-7-yl)cyclohexanol], for which the IC50 at MERTK and against TYRO3 was at most 100 nM in each case. In addition, on MERTK (ratio of Mer to FLT3: FLT3 IC50/Mer IC50), the “FLT3/Mer ratio (FLT3 IC50/Mer IC50)” value is listed as “+++ (“+++” represents a ratio of >100)”.

As to `COC[C@H](C)Nc1ncc2c(-c3cnn(C(C)(C)C(=O)N4CCOCC4)c3)cc([C@@H]3CCc4cn[nH]c4C3)n2n1` [Compound 594], the IC50 at MERTK and on TYRO3 was at most 100 nM in each case. The “FLT3/Mer ratio (FLT3 IC50/Mer IC50)” value on MERTK (setting [1]) is “+++ (“+++” represents a ratio of >100)”.

`COC[C@H](C)Nc1ncc2c(-c3cnn(C4COC4)c3)cc([C@@H]3CC[C@H](O)C(C)(C)C3)n2n1` [Compound 571]: the IC50 at MERTK and against TYRO3 was at most 100 nM each time. Besides, the “FLT3/Mer ratio (FLT3 IC50/Mer IC50)” value at MERTK (setting [1]) was “++ (“++” represents a ratio of between 10 and 100)”.

As for `C[C@@H](COC(F)F)Nc1ncc2c(-c3ccc(S(C)(=O)=O)nc3)cc([C@H]3CC[C@H](O)CC3)n2n1` [Compound 513], the IC50 at MERTK and against TYRO3 was at most 100 nM each time. For the same molecule, at MERTK (setting [1]), the “FLT3/Mer ratio (FLT3 IC50/Mer IC50)” value is recorded as “+++ (“+++” represents a ratio of >100)”.

Take `COC[C@H](C)Nc1ncc2c(-c3cnn(C4COC4)c3)cc(-c3cccc(O)c3)n2n1` [Compound 511]: the IC50 on MERTK and at TYRO3 was at most 100 nM in each case. Besides, the “FLT3/Mer ratio (FLT3 IC50/Mer IC50)” value at MERTK (setting [1]) was “++ (“++” represents a ratio of between 10 and 100)”.

Take `COC[C@H](C)Nc1ncc2c(-c3ccnc(N4CCOCC4)c3)cc([C@H]3CC[C@@](C)(O)CC3)n2n1` [Compound 548]: the IC50 on MERTK and against TYRO3 was at most 100 nM each time. In addition, the “FLT3/Mer ratio (FLT3 IC50/Mer IC50)” value on MERTK (setting [1]) is recorded as “+++ (“+++” represents a ratio of >100)”.

The record behind these values is patent publication US11040981B2, “Pyrrolotriazine compounds and methods of inhibiting TAM kinases” (Syros Pharmaceuticals, Inc., priority 2017, dated 2021).
